Among the data in ChEMBL document CHEMBL4354792, “Emerging modes-of-action in drug discovery” (Medchemcomm, 2019) are IC50 values, retold here.

The structures appear in SMILES notation. pIC50: −log10 of the molar value.

As a reminder, the pIC50 is −log10 of the IC50, conventionally taken in molar units.

One test deals with Ribosome. In words: Inhibition of 80s ribosome in CHOK1 cells assessed as reduction in PL-tagged PCSK9 expression incubated for over night by EFC kit method. The format is cell-based. The settings on record: Cricetulus griseus, CHO-K1.
Test [1] is described as follows: Binding affinity to MMTV-PyMT mouse MALAT1 long non-coding RNA by FRET assay.

Consider `COc1ccc(CCC(=O)N(c2nccc3ccccc23)[C@@H]2CCCNC2)cc1`, for which the negative logarithm of the IC50 (pIC50) with Ribosome was 5.32.
In test [1], `N=C(NC1CCN(Cc2ccccc2)CC1)c1ccc(-c2ccc(-c3ccc(C(=N)NC4CCN(Cc5ccccc5)CC4)cc3)o2)cc1` gave a pIC50 of 5.60 to 5.89.
